Results as given in patent US7105527B2, “N4-acylcytosine nucleosides for treatment of viral infections” (priority 2001, dated 2006).
Where two headings read alike, the source gives them in different places.

Key:
Type in all cases: cell-based
HIV-1LAl = test: Anti-HIV (in PBM cells) assay, reverse transcriptase readout
Method: Anti-HIV-1 activity of the compounds was determined in human peripheral blood mononuclear (PBM) cells as described previously (Schinazi […]., Cannon D., Mathis R., Lloyd R. M. Jr., […]., St. Clair M., Wilson J., Furman P. A., Painter G., Choi […]. Antimicrob. Agents Chemother. 1992, 36, 2423; Schinazi […]., Cannon D., Xie […]., Smith G., Hahn E. Antimicrob. Agents Chemother. 1990, 34, 1061). Stock solutions ([…]) of the compounds were prepared in sterile DMSO and then diluted to the desired concentration in growth medium. […] Virus obtained from the cell supernatant was quantified on day 6 after infection by a reverse transcriptase assay using (rA)n.(dT)12.18 as template-primer. […] AZT was included as positive control. The antiviral EC50 and EC90 were obtained from the concentration-response curve using the median effective method described previously (Chou […]. Enzyme Regul. 1984, 22, 27-55; Belen'kii M. S. & Schinazi R. F. Antiviral Res. 1994, 25, 1-11).

Vero cells = test: Cytotoxicity assay in Vero cells
Method: (§1) The toxicity of the compounds was assessed in Vero, human PBM, CEM (human lymphoblastoid), MT-2, and HepG2 cells, as described previously (Schinazi […]., Cannon D. L., Xie […]., Smith […]. […] Cycloheximide was included as positive cytotoxic control, and untreated cells exposed to solvent were included as negative controls. The cytotoxicity IC50 was obtained from the concentration-response curve using the median effective method described previously (Chou […]. […] Belen'kii M. S. & Schinazi R. F.

[1] = system: CEM (human lymphoblastoid) cells; test: Cytotoxicity assay in CEM cells
Method: as §1

HIV-1RF = test: Anti-HIV (in MT-2 cells) assay, viral RNA accumulation; conditions: EC90, MT-2 cells, read-out: Anti-HIV-1 activity in different cells (EC90, μM) MT-2
Method: In a second antiviral testing system, the potency of the compounds was determined by measurement of viral RNA accumulation in HIV-1RF infected MT-2 cells (Bacheler L T, Paul M, Otto M J, Jadhav P K, Stone B A & Miller J A (1994) An assay for HIV RNIn infected cell lysates, and its use for rapid evaluation of antiviral efficacy. Antivir. Chem. Chemother. 5:111–121). The virus titer was established to determine the dilution producing 15 to 30 ng/RNA per well of HIV RNIn 3 days of infection. HIV-1 RNA was quantified using biotinylated capture and alkaline phosphatase-derivatized reporter oligonucleotides as described previously (Charvet A-S, Camplo M, Faury P, Graciet J C, Mourier N, Chermann J C & Kraus J L (1994) Inhibition of human immunodeficiency virus type 1 replication by phosphonoformate- and phosphonoacetate-2′,3′-dideoxy-3′-thiacytidine conjugates. J. Med. Chem. 37:2216–2223). In a third system, the effect of analogs on the replication of HIV-1NL4-3 was determined via the InterCompany Consortium consensus p24 assay as previously described (Jadhav P K & MacKay M F (1997) Cyclic urea amide: HIV-1 protease inhibitors with low nanomolar potency against both wild types and protease inhibitor resistant mutants of HIV. J. Med. Chem. 40:181–190). Recombinant viruses were recovered by transfecting the appropriate NL4-3 plasmid by lipofection. Virus stocks recovered 7 to 10 days post-transfection were titered on MT-4 cells to determine if the dilution produced 1,000 to 3,000 ng p24 in 4 days. This dilution was then used in drug susceptibility assays, where drug was added 24 h post infection of cells, and p24 quantified by ELISA 3 days later.

human PBM cells = test: Cytotoxicity assay in PBM cells
Method: as §1

HepG2 cells = test: Cytotoxicity assay in HepG2 cells
Method: as §1

MT-2 cells = test: Cytotoxicity assay in MT-2 cells
Method: as §1

[2] = Table 1, read-out: Anti-HIV-1 activity in different cells (EC90, μM) PBM
[3] = Table 1, read-out: Cytotoxicity in different cells (IC50, μM) Vero
[4] = Table 1, read-out: Cytotoxicity in different cells (IC50, μM) CEM
[5] = Table 1, read-out: Cytotoxicity in different cells (IC50, μM) PBM
[6] = Table 1, read-out: Cytotoxicity in different cells (IC50, μM) HepG2
[7] = Table 1, read-out: Cytotoxicity in different cells (IC50, μM) MT-2
[8] = Table 2, read-out: Anti-HIV-1 activity in different cells (EC90, μM) PBM
[9] = Table 2, read-out: Cytotoxicity in different cells (IC50, μM) Vero
[10] = Table 2, read-out: Cytotoxicity in different cells (IC50, μM) CEM
[11] = Table 2, read-out: Cytotoxicity in different cells (IC50, μM) PBM
[12] = Table 2, read-out: Cytotoxicity in different cells (IC50, μM) HepG2
[13] = Table 2, read-out: Cytotoxicity in different cells (IC50, μM) MT-2

SMILES | EC90 (HIV-1LAl; [2]) [µM] | IC50 (Vero cells; [3]) [µM] | IC50 [1, 4] [µM] | EC90 (HIV-1RF; Table 1) [µM] | IC50 (human PBM cells; [5]) [µM] | IC50 (HepG2 cells; [6]) [µM] | IC50 (MT-2 cells; [7]) [µM] | EC90 (HIV-1LAl; [8]) [µM] | IC50 (Vero cells; [9]) [µM] | IC50 [1, 10] [µM] | EC90 (HIV-1RF; Table 2) [µM] | IC50 (human PBM cells; [11]) [µM] | IC50 (HepG2 cells; [12]) [µM] | IC50 (MT-2 cells; [13]) [µM]
COc1ccc(C(=O)Nc2nc(=O)n([C@H]3CC[C@@H](CO)O3)cc2F)cc1 [Compound 17, β-D-N^4-p-Anisoyl-2′,3′-dideoxy-5-fluorocytidine] | 8.31 | 5.3 | 31.6 | 6 | 69.2 | 4.5 | 16 | – | – | – | – | – | – | –
O=C(Nc1nc(=O)n([C@H]2CC[C@@H](CO)O2)cc1F)c1ccccc1[N+](=O)[O-] [Compound 20, β-D-2′,3′-Dideoxy-5-fluoro-N^4-(2-nitrobenzoyl)cytidine] | 1.5 | > 100 | > 100 | 0.7 | > 100 | > 100 | > 50 | – | – | – | – | – | – | –
O=C(Nc1nc(=O)n([C@H]2CC[C@@H](CO)O2)cc1F)c1ccccc1 [Compound 21, β-D-N^4-Benzoyl-2′,3′-dideoxy-5-fluorocytidine] | 1.29 | 5.8 | 38.5 | 1.2 | 67 | 15.3 | 19 | – | – | – | – | – | – | –
Cc1ccccc1C(=O)Nc1nc(=O)n([C@H]2CC[C@@H](CO)O2)cc1F [Compound 24, β-D-2′,3′-Dideoxy-5-fluoro-N^4-o-toluoylcytidine] | 1.2 | 39.6 | 22.5 | 6.8 | 20.6 | > 100 | > 50 | – | – | – | – | – | – | –
O=C(Nc1nc(=O)n([C@H]2CC[C@@H](CO)O2)cc1F)c1ccco1 [Compound 29, β-D-2′,3′-Dideoxy-5-fluoro-N^4-(2-furoyl)cytidine] | 1.5 | 29.6 | 5.7 | 0.9 | 16.9 | 31.1 | > 50 | – | – | – | – | – | – | –
O=C(Nc1nc(=O)n([C@H]2CC[C@@H](CO)O2)cc1F)c1cccnc1 [Compound 31, β-D-2′,3′-Dideoxy-5-fluoro-N^4-(nicotinoyl)cytidine] | 0.17 | 28.1 | 5.5 | 5.9 | 8.8 | 19.4 | > 50 | – | – | – | – | – | – | –
CCCC(=O)Nc1nc(=O)n([C@H]2CC[C@@H](CO)O2)cc1F [Compound 34, β-D-N^4-Butyryl-2′,3′-dideoxy-5-fluorocytidine] | 1.6 | 5.8 | 31.6 | 0.71 | 17.1 | 7.6 | 7.2 | – | – | – | – | – | – | –
COc1cccc(C(=O)Nc2nc(=O)n([C@H]3C=C[C@@H](CO)O3)cc2F)c1 [Compound 43, β-D-N^4-m-Anisoyl-2′,3′-didehydro-2′,3′-dideoxy-5-fluorocytidine] | – | – | – | – | – | – | – | 2.1 | > 100 | 24.6 | 0.34 | 18.5 | > 100 | > 50
COc1ccccc1C(=O)Nc1nc(=O)n([C@H]2C=C[C@@H](CO)O2)cc1F [Compound 44, β-D-N^4-o-Anisoyl-2,3′-didehydro-2,3-dideoxy-5-fluorocytidine] | – | – | – | – | – | – | – | 14.6 | 5.6 | 3.9 | > 50 | 13.1 | 3.4 | > 50
O=C(Nc1nc(=O)n([C@H]2C=C[C@@H](CO)O2)cc1F)c1ccc([N+](=O)[O-])cc1 [Compound 45, β-D-2′,3′-Didehydro-2′,3′-dideoxy-5-fluoro-N^4-(4-nitrobenzoyl)cytidine] | – | – | – | – | – | – | – | 1.7 | 6.6 | 4.2 | 0.29 | 3.4 | 5.6 | > 50
O=C(Nc1nc(=O)n([C@H]2C=C[C@@H](CO)O2)cc1F)c1ccccc1[N+](=O)[O-] [Compound 47, β-D-2′,3′-Didehydro-2′,3′-dideoxy-5-fluoro-N^4-(2-nitrobenzoyl)cytidine] | – | – | – | – | – | – | – | 39.9 | > 100 | > 100 | > 50 | 80 | > 100 | > 50
Cc1ccccc1C(=O)Nc1nc(=O)n([C@H]2C=C[C@@H](CO)O2)cc1F [Compound 50, β-D-2′,3′-Didehydro-2′,3′-dideoxy-5-fluoro-N^4-o-toluoylcytidine] | – | – | – | – | – | – | – | 56.8 | > 100 | 46.4 | > 50 | 58.4 | > 100 | > 50
O=C(Nc1nc(=O)n([C@H]2C=C[C@@H](CO)O2)cc1F)c1cccs1 [Compound 54, β-D-2′,3′-Didehydro-2′,3′-dideoxy-5-fluoro-N^4-(2-thiophenecarbonyl)cytidine] | – | – | – | – | – | – | – | 1.6 | 4.8 | 3.9 | 1.5 | 10.2 | 2.3 | > 50
O=C(Nc1nc(=O)n([C@H]2C=C[C@@H](CO)O2)cc1F)c1cccnc1 [Compound 55, β-D-2, 3′-Didehydro-2′,3′-dideoxy-5-fluoro-N^4-nicotinoylcytidine] | – | – | – | – | – | – | – | 42.3 | 13.1 | 6.7 | 29 | 13.8 | 10.3 | > 50
CCCCCCC(=O)Nc1nc(=O)n(C2C=CC(CO)O2)cc1F [Compound 59, β-D-2′,3′-Didehydro-2′,3′-dideoxy-5-fluoro-N^4-heptanoylcytidine] | – | – | – | – | – | – | – | – | – | – | 0.23 | – | – | 6.2
